Data as given in patent US6468472B1 (priority 1999, dated 2002).
Like-named read-outs stand apart in the source and are kept apart here.

Columns and labels:
[1] = tested on: pathogenic microorganisms; conditions: cited from earlier work; for minimum effective concentration for high-level disinfection: 20° C.
Bacillus subtilis spores = conditions: cited from earlier work
[2] = second-order dependence on peracetic acid concentration (Yuan et al.); cited from earlier work
[3] = Peracetic acid stability versus pH; type: physicochemical; conditions: acetic acid buffer at pH 5.0-5.8

| Structure (SMILES) | minimum effective concentration for high-level disinfection ([1]; 30 min, Sporox) [%] | time for killing all Bacillus subtilis spores (Bacillus subtilis spores; pH 5) [h] | time for killing all Bacillus subtilis spores (Bacillus subtilis spores; pH 8) [h] | minimum effective concentration for high-level disinfection ([1]; 25 min, Peract) [%] | minimum effective concentration for high level disinfection in a short time interval or sterilization over a longer soak period [1] [ppm] | time for killing all Bacillus subtilis spores (Bacillus subtilis spores; PAA at 0.013 m/l (0.10% w/v), pH 5.0) [h] | time for killing all Bacillus subtilis spores (Bacillus subtilis spores; PAA at 0.013 m/l (0.10% w/v), pH 8.0) [h] | reduction in sporicidal rate of kill activity between pH 8.0 and pH 5.0 (Bacillus subtilis spores; PAA at 0.13-0.38 m/l (0.99-2.89% w/v)) | decrease of sporicidal activity between pH 2.6 and pH 8.0 (factor) (Bacillus subtilis spores; work of Baldry) | increase in sporicidal kill time at pH 8.0 versus 5.0 (Bacillus subtilis spores; work of Baldry) [times] | increase in kill time at pH 2.6 versus pH 5.0 (Bacillus subtilis spores; work of Baldry, possible factor) [times] | pH of maximum decomposition rate [2] | amount which can be stably maintained [3] |
| --- | --- | --- | --- | --- | --- | --- | --- | --- | --- | --- | --- | --- | --- |
| OO [Formulation H2O2, hydrogen peroxide] | 6.0 | 3 | 6 | – | – | – | – | – | – | – | – | – | – |
| CC(=O)OO [PAA, peracetic acid] | – | – | – | 0.05 | 500 | 1 | > 6 | did not show a reduction | 3-10 times | 6 | 2 | 8.2 | less than 700 ppm |
